Four compounds from PMC9953703, “Bacterial Quorum-Sensing Peptides as Immune Modulators Present in Systemic Circulation” (Biomolecules, 2023) can be followed below.

One data set deals with human red blood cells. The settings on record: human RBC, 1 μM QSP, 1 h, 37 °C. How it is done:
In vitro haemolysis of Q007, Q010, Q017 and Q212 was determined using previously described procedures. Briefly, freshly obtained human blood was centrifuged and the precipitate washed using freshly prepared 150 mM NaCl solution. After the final centrifugation step, the precipitate was resuspended into 100 mM sodium phosphate buffer pH 7.4. A 1 to 10 RBC solution was incubated for 1 h at 37 °C with QSP at a concentration of 1 μM. The absorbance of the supernatant was measured at 405 nm and corrected for the blank absorbance. The percent haemolysis was then calculated using the following equation: [(Asample − Ablank)/(Apositive control − Ablank)] × 100, with 1% (v/v) Triton X-100 being the positive control.

The nature of data set [1]: in vitro. The settings on record: human plasma (500 µL) in Krebs-Henseleit buffer pH 7.4, 100 µg peptide, 37 °C shaking, 0, 30 and 120 min, UPLC-PDA, first-order kinetics; for half-life: human, plasma, pH 7.4, Plasma Half-Life. As for the experimental part: In vitro chemical and metabolic stability of Q007, Q010, Q017 and Q212 was determined in cell medium and human plasma, respectively, using previously described procedures. In brief, 100 µg of peptide was incubated in Krebs–Henseleit buffer pH 7.4 with cell medium/plasma (500 µL) at 37 °C while shaking. At predetermined time intervals (i.e., 0, 6 and 24 h for cell medium; 0, 30 and 120 min for plasma), aliquots were immediately transferred into microtubes containing 1:1 volume of 1% (v/v) trifluoroacetic acid solution in water. The enzyme reaction was further stopped by heating the solution at 95 °C for 5 min. Next, the samples were centrifuged to precipitate the denatured proteins and the supernatant analysed using UPLC-PDA (Waters, Milford, MA, USA). Appropriate placebo solutions were similarly prepared. Assuming first-order kinetics, the rate constant k was obtained from ln(Pt/Pt0) = −kt, from which the half-life was determined as T1/2 = ln(2)/k.

A short description of data set [2]: in vitro. The settings on record: human, Caco-2.
Experimental: Caco-2 permeability tests were performed as described by Wynendaele et al. [7], based on the protocol of Hubatsch et al. [14]. Briefly, Caco-2 cells were seeded on 12-well polycarbonate membrane filters (0.4 μm pore size, Corning, Teltow, Germany) and left for differentiation during 21–29 days. […] Samples were quantitatively analysed using UPLC-MS/MS. Four independent biological replicates were used (different days and well-plates), with each between 3 and 6 technical replicates (i.e., different wells on one plate/in one day).

Residues, ends and D or L forms follow the SMILES beside them.

Turning to `C[C@@H](O)[C@H](NC(=O)[C@H](Cc1c[nH]c2ccccc12)NC(=O)[C@@H]1CCCN1C(=O)[C@H](CO)NC(=O)[C@@H](N)Cc1ccc(O)cc1)C(=O)N[C@@H](CC(N)=O)C(=O)N[C@@H](Cc1ccccc1)C(N)=O` [Q007, RNAIII Inhibiting Peptide (RIP)] (H-YSPWTNF-NH2), the “haemolysis-inducing effect” value with human red blood cells is reported as “did not induce haemolysis”. In “in vitro [1]”, the “Plasma Half-Life” value is 2.2 h and the half-life was 2 h.

In the data set “in vitro [1]”, `CC[C@H](C)[C@H](NC(=O)[C@H](CC(C)C)NC(=O)[C@H](C)N)C(=O)N[C@@H](CC(C)C)C(=O)N[C@H](C(=O)N[C@@H](CC(C)C)C(=O)N[C@H](C(=O)N[C@@H](CO)C(=O)O)C(C)C)[C@@H](C)O` [Q017, iPD1] (H-ALILTLVS-OH) had a half-life of 2.5 h.

`CC(C)C[C@H](NC(=O)[C@H](CC(=O)O)NC(=O)[C@H](C)N)C(=O)N1CCC[C@H]1C(=O)N[C@@H](Cc1ccccc1)C(=O)N[C@@H](CCC(=O)O)C(=O)N[C@@H](Cc1ccccc1)C(=O)O` [Q010, PapR7I] (H-ADLPFEF-OH): the Papp A→B at 30 min in the data set “in vitro [2]” turned out to be 0.0129 ×10⁻⁶ cm/s. Further, the “haemolysis-inducing effect” value in the data set on human red blood cells is given as “lack of haemolysis-inducing effects”. In “in vitro [1]”, the “Plasma Half-Life” value is reported as 9.2 h and the half-life was 9 h.

`CC(C)[C@H](N)C(=O)N1CCC[C@H]1C(=O)N[C@@H](Cc1ccccc1)C(=O)N[C@@H](CCC(=O)O)C(=O)N[C@@H](Cc1ccccc1)C(=O)O` [Q212, PapR5III] (H-VPFEF-OH) showed a half-life in “in vitro [1]” of 0.2 h.
